From US11331299B2, “Medicinal use of serrulatane diterpenes” (The University of Sydney, priority 2016, dated 2022)
Where two headings read alike, the source gives them in different places.

System: 280 human cancer cell lines
Test: OncoPanel cell proliferation assay (10-day)
Type: cell-based
Details: Homo sapiens; for IC50: read-out: Cell Count IC50; for EC50: read-out: Cell Count EC50; for GI50: read-out: Cell Count GI50
[1] = SJRH30, SJRH30, Soft Tissue - Sarcoma
[2] = SJSA-1, SJSA1, Soft Tissue - Osteosarcoma
[3] = SK-LMS-1, SK-LMS-1, Soft Tissue - Sarcoma
[4] = SK-MEL3, SK-MEL-3, Skin (Melanoma)
[5] = SK-MEL-1, SK-MEL-1, Skin (Melanoma)
[6] = SK-MEL-28, SK-MEL-28, Skin (Melanoma)
[7] = SK-OV-3, SKOV3, Female GU - Ovary
[8] = SK-UT-1, SK-UT-1, Soft Tissue - Sarcoma
[9] = SW579, SW579, Endocrine - Thyroid
[10] = SW684, SW684, Soft Tissue - Sarcoma

CC(C)=CCC[C@H](C)[C@@H]1CC[C@@H](C)c2c1cc(C)c(O)c2O [Compound 4, 7,8-dihydroxyserrulat-14-ene]
IC50 (SCaBER, Bladder): 16.9 µM | EC50 (SH-4, Skin (Melanoma)): 11.6 µM | GI50 (SH-4, Skin (Melanoma)): 11.5 µM | IC50 (SH-4, Skin (Melanoma)): 11.6 µM | EC50 (SHP77, SHP-77, Lung - SCLC): 6.83 µM | GI50 (SHP77, SHP-77, Lung - SCLC): 6.75 µM | IC50 (SHP77, SHP-77, Lung - SCLC): 6.83 µM | EC50 [1]: 3.68 µM | GI50 [1]: 3.68 µM | IC50 [1]: 3.68 µM | EC50 [2]: 7.45 µM | GI50 [2]: 7.45 µM | IC50 [2]: 7.45 µM | EC50 (SK-BR-3, SK-BR-3, Breast): 10.3 µM | GI50 (SK-BR-3, SK-BR-3, Breast): 9.97 µM | IC50 (SK-BR-3, SK-BR-3, Breast): 10.3 µM | EC50 [3]: 9.04 µM | GI50 [3]: 8.98 µM | IC50 [3]: 9.04 µM | EC50 [4]: > 30 µM | GI50 [4]: > 30 µM | IC50 [4]: > 30 µM | EC50 [5]: > 30 µM | GI50 [5]: > 30 µM | IC50 [5]: > 30 µM | EC50 [6]: 11.2 µM | GI50 [6]: 11.1 µM | IC50 [6]: 11.2 µM | EC50 (SK-MES-1, SKMES1, Lung - NSCLC): 11.6 µM | GI50 (SK-MES-1, SKMES1, Lung - NSCLC): 11.5 µM | IC50 (SK-MES-1, SKMES1, Lung - NSCLC): 11.6 µM | EC50 (SK-N-AS, CNS - Neuroblastoma): 5.86 µM | GI50 (SK-N-AS, CNS - Neuroblastoma): 5.75 µM | IC50 (SK-N-AS, CNS - Neuroblastoma): 5.86 µM | EC50 (SK-N-DZ, CNS - Neuroblastoma): 11.9 µM | GI50 (SK-N-DZ, CNS - Neuroblastoma): 11.5 µM | IC50 (SK-N-DZ, CNS - Neuroblastoma): 11.9 µM | EC50 (SK-N-FI, CNS - Neuroblastoma): 21.5 µM | GI50 (SK-N-FI, CNS - Neuroblastoma): 20.6 µM | IC50 (SK-N-FI, CNS - Neuroblastoma): 21.5 µM | EC50 [7]: 8.43 µM | GI50 [7]: 8.33 µM | IC50 [7]: 8.43 µM | EC50 (SK-PN-DW, Stomach): 4.91 µM | GI50 (SK-PN-DW, Stomach): 4.88 µM | IC50 (SK-PN-DW, Stomach): 4.91 µM | EC50 [8]: 5.49 µM | GI50 [8]: 5.46 µM | IC50 [8]: 5.49 µM | EC50 (SKO-007, SKO-007, Myeloma): 4.66 µM | GI50 (SKO-007, SKO-007, Myeloma): 4.55 µM | IC50 (SKO-007, SKO-007, Myeloma): 4.71 µM | EC50 (SNB-19, SNB-19, CNS - Glioma): 13 µM | GI50 (SNB-19, SNB-19, CNS - Glioma): 12.9 µM | IC50 (SNB-19, SNB-19, CNS - Glioma): 13 µM | EC50 (SNU1, SNU-1, Stomach): 6.99 µM | GI50 (SNU1, SNU-1, Stomach): 6.98 µM | IC50 (SNU1, SNU-1, Stomach): 6.99 µM | EC50 (SNU-5, SNU-5, Stomach): 14.4 µM | GI50 (SNU-5, SNU-5, Stomach): 14.2 µM | IC50 (SNU-5, SNU-5, Stomach): 14.4 µM | EC50 (SNU-16, SNU-16, Stomach): 11 µM | GI50 (SNU-16, SNU-16, Stomach): 11 µM | IC50 (SNU-16, SNU-16, Stomach): 11 µM | EC50 (SNU-423, SNU-423, Liver): 9.3 µM | GI50 (SNU-423, SNU-423, Liver): 9.28 µM | IC50 (SNU-423, SNU-423, Liver): 9.31 µM | EC50 (SR, Lymphoma): 4.39 µM | GI50 (SR, Lymphoma): 4.39 µM | IC50 (SR, Lymphoma): 4.39 µM | EC50 (ST486, ST486, Lymphoma): 2.66 µM | GI50 (ST486, ST486, Lymphoma): 2.65 µM | IC50 (ST486, ST486, Lymphoma): 2.66 µM | EC50 (SU-DHL10, SU-DHL-10, Lymphoma): 7.68 µM | GI50 (SU-DHL10, SU-DHL-10, Lymphoma): 7.67 µM | IC50 (SU-DHL10, SU-DHL-10, Lymphoma): 7.68 µM | EC50 (SU-DHL-4, SU-DHL-4, Lymphoma): 5.74 µM | GI50 (SU-DHL-4, SU-DHL-4, Lymphoma): 5.74 µM | IC50 (SU-DHL-4, SU-DHL-4, Lymphoma): 5.74 µM | EC50 (SU-DHL-5, SU-DHL-5, Lymphoma): 3.8 µM | GI50 (SU-DHL-5, SU-DHL-5, Lymphoma): 3.8 µM | IC50 (SU-DHL-5, SU-DHL-5, Lymphoma): 3.8 µM | EC50 (SU-DHL-8, SU-DHL-8, Lymphoma): 3.9 µM | GI50 (SU-DHL-8, SU-DHL-8, Lymphoma): 3.9 µM | IC50 (SU-DHL-8, SU-DHL-8, Lymphoma): 3.9 µM | EC50 (SU.86.86, SU.86.86, Pancreas): > 30 µM | GI50 (SU.86.86, SU.86.86, Pancreas): > 30 µM | IC50 (SU.86.86, SU.86.86, Pancreas): > 30 µM | EC50 (SUP-T1, SUP-T1, Lymphoma): 6.51 µM | GI50 (SUP-T1, SUP-T1, Lymphoma): 6.49 µM | IC50 (SUP-T1, SUP-T1, Lymphoma): 6.51 µM | EC50 (SW48, SW48, Colon): 13 µM | GI50 (SW48, SW48, Colon): 13 µM | IC50 (SW48, SW48, Colon): 13 µM | EC50 [9]: 11 µM | GI50 [9]: 11 µM | IC50 [9]: 11 µM | EC50 [10]: > 30 µM | GI50 [10]: > 30 µM | IC50 [10]: > 30 µM | EC50 (SW837, SW837, Colon): 18.9 µM
